Experimental data reported in patent US20250270172A1, “Pyrimidine Derivatives As Modulators of the 5-HT2A Serotonin Receptor Useful For The Treatment of Disorders Related Thereto” (Arena Pharmaceuticals, Inc., priority 2020, published 2025).
Like-named read-outs stand apart in the source and are kept apart here.

Target: 5-HT2A (Homo sapiens (Human), UniProt P28223)
Assay: Radioligand binding assay, [^3H]5-HT competition, 5-HT2A
[1] = [^3H]5-HT radioligand, membranes of HEK293 cells expressing recombinant 5-HT2A, Ki from IC50 by Cheng-Prusoff, read-out: 5-HT2A serotonin binding Ki value

Chain of 5-HT2A (P28223 whole entry): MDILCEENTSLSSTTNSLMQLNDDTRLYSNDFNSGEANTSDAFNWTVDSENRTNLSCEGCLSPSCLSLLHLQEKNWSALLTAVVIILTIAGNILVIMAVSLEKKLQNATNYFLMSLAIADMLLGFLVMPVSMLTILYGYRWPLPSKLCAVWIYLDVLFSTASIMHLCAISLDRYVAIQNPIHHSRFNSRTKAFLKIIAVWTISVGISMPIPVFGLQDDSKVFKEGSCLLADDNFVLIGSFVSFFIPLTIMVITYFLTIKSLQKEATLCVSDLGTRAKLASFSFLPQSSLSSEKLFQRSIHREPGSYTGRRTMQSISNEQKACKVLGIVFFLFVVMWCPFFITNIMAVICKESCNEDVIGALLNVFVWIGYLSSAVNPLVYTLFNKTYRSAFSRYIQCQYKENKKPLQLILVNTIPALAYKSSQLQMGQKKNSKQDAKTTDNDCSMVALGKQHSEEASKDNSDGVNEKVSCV

Row | SMILES | Ki [1] | further results
1 | Cc1ncnc(C)c1-c1cc(NC(=O)c2ccn(C)c2)ccc1OCCN1CCCC1 [Compound 201, N-(3-(4,6-dimethylpyrimidin-5-yl)-4-(2-(pyrrolidin-1-yl)ethoxy)phenyl)-1-methyl-1H-pyrrole-3-carboxamide] | 33.4 nM | 
2 | Cc1ncnc(C)c1-c1cc(NC(=O)c2ccn(C)n2)ccc1OCCN1CCCC1 [Compound 203, N-(3-(4,6-dimethylpyrimidin-5-yl)-4-(2-(pyrrolidin-1-yl)ethoxy)phenyl)-1-methyl-1H-pyrazole-3-carboxamide] | 783 nM | 
3 | Cc1cc(C(=O)Nc2ccc(OCCN3CCCC3)c(-c3c(C)ncnc3C)c2)co1 [Compound 204, N-(3-(4,6-dimethylpyrimidin-5-yl)-4-(2-(pyrrolidin-1-yl)ethoxy)phenyl)-5-methylfuran-3-carboxamide] | 13.2 nM | 
4 | CCc1cc(C(=O)Nc2ccc(OCCN3CCCC3)c(-c3c(C)ncnc3C)c2)[nH]n1 [Compound 205, N-(3-(4,6-dimethylpyrimidin-5-yl)-4-(2-(pyrrolidin-1-yl)ethoxy)phenyl)-3-ethyl-1H-pyrazole-5-carboxamide] | 10.4 nM | 
5 | Cc1ncnc(C)c1-c1cc(NC(=O)c2cc(C(C)C)n[nH]2)ccc1OCCN1CCCC1 [Compound 206, N-(3-(4,6-dimethylpyrimidin-5-yl)-4-(2-(pyrrolidin-1-yl)ethoxy)phenyl)-3-isopropyl-1H-pyrazole-5-carboxamide] | 6.51 nM | 
6 | Cc1ncnc(C)c1-c1cc(NC(=O)c2cncc(F)c2)ccc1OCCN1CCCC1 [Compound 207, N-(3-(4,6-dimethylpyrimidin-5-yl)-4-(2-(pyrrolidin-1-yl)ethoxy)phenyl)-5-fluoronicotinamide] | 44.2 nM | 
7 | COc1cncc(C(=O)Nc2ccc(OCCN3CCCC3)c(-c3c(C)ncnc3C)c2)c1 [Compound 208, N-(3-(4,6-dimethylpyrimidin-5-yl)-4-(2-(pyrrolidin-1-yl)ethoxy)phenyl)-5-methoxynicotinamide] | 22.5 nM | 
8 | Cc1ncnc(C)c1-c1cc(NC(=O)c2ccc(F)cn2)ccc1OCCN1CCCC1 [Compound 210, N-(3-(4,6-dimethylpyrimidin-5-yl)-4-(2-(pyrrolidin-1-yl)ethoxy)phenyl)-5-fluoropicolinamide] | 134 nM | 
9 | Cc1ncnc(C)c1-c1cc(NC(=O)[C@@H]2C[C@H]2F)ccc1OCCN1CCCC1 [Compound 211, (1S,2R)—N-(3-(4,6-dimethylpyrimidin-5-yl)-4-(2-(pyrrolidin-1-yl)ethoxy)phenyl)-2-fluorocyclopropane-1-carboxamide] | 2.08 nM | 
10 | Cc1ncnc(C)c1-c1cc(NC(=O)[C@H]2C[C@H]2F)ccc1OCCN1CCCC1 [Compound 212, (1R,2R)—N-(3-(4,6-dimethylpyrimidin-5-yl)-4-(2-(pyrrolidin-1-yl)ethoxy)phenyl)-2-fluorocyclopropane-1-carboxamide] | 5.56 nM | 
11 | Cc1ncnc(C)c1-c1cc(NC(=O)[C@@H]2C[C@@H]2F)ccc1OCCN1CCCC1 [Compound 213, (1S,2S)—N-(3-(4,6-dimethylpyrimidin-5-yl)-4-(2-(pyrrolidin-1-yl)ethoxy)phenyl)-2-fluorocyclopropane-1-carboxamide] | 4.6 nM | 
12 | Cc1nc(C)c(C(=O)Nc2ccc(OCCN3CCCC3)c(-c3c(C)ncnc3C)c2)s1 [Compound 215, N-(3-(4,6-dimethylpyrimidin-5-yl)-4-(2-(pyrrolidin-1-yl)ethoxy)phenyl)-2,4-dimethylthiazole-5-carboxamide] | 15.7 nM | 
13 | Cc1cnoc1C(=O)Nc1ccc(OCCN2CCCC2)c(-c2c(C)ncnc2C)c1 [Compound 216, N-(3-(4,6-dimethylpyrimidin-5-yl)-4-(2-(pyrrolidin-1-yl)ethoxy)phenyl)-4-methylisoxazole-5-carboxamide] | 16.6 nM | 
14 | Cc1ncnc(C)c1-c1cc(NC(=O)c2cnoc2)ccc1OCCN1CCCC1 [Compound 218, N-(3-(4,6-dimethylpyrimidin-5-yl)-4-(2-(pyrrolidin-1-yl)ethoxy)phenyl)isoxazole-4-carboxamide] | 1510 nM | 
15 | Cc1nocc1C(=O)Nc1ccc(OCCN2CCCC2)c(-c2c(C)ncnc2C)c1 [Compound 219] | 6.51 nM | 
16 | Cc1ncnc(C)c1-c1cc(NC(=O)c2cnoc2C)ccc1OCCN1CCCC1 [Compound 220, N-(3-(4,6-dimethylpyrimidin-5-yl)-4-(2-(pyrrolidin-1-yl)ethoxy)phenyl)-5-methylisoxazole-4-carboxamide] | 22 nM | 
17 | Cc1ncnc(C)c1-c1cc(NC(=O)c2ncoc2C)ccc1OCCN1CCCC1 [Compound 221, N-(3-(4,6-dimethylpyrimidin-5-yl)-4-(2-(pyrrolidin-1-yl)ethoxy)phenyl)-5-methyloxazole-4-carboxamide] | 11.4 nM | 
18 | Cc1nscc1C(=O)Nc1ccc(OCCN2CCCC2)c(-c2c(C)ncnc2C)c1 [Compound 223, N-(3-(4,6-dimethylpyrimidin-5-yl)-4-(2-(pyrrolidin-1-yl)ethoxy)phenyl)-3-methylisothiazole-4-carboxamide] |  | Ki (read-out: 5-HT2A serotonin binding Ki value): 10.5 nM
19 | Cc1ncnc(C)c1-c1cc(NC(=O)Cc2ncsc2C)ccc1OCCN1CCCC1 [Compound 225, N-(3-(4,6-dimethylpyrimidin-5-yl)-4-(2-(pyrrolidin-1-yl)ethoxy)phenyl)-2-(5-methylthiazol-4-yl)acetamide] | 712 nM | 
20 | Cc1ncoc1CC(=O)Nc1ccc(OCCN2CCCC2)c(-c2c(C)ncnc2C)c1 [Compound 226, N-(3-(4,6-dimethylpyrimidin-5-yl)-4-(2-(pyrrolidin-1-yl)ethoxy)phenyl)-2-(4-methyloxazol-5-yl)acetamide] | 714 nM | 
21 | Cc1ncnc(C)c1-c1cc(NC(=O)Cc2ccnn2C)ccc1OCCN1CCCC1 [Compound 227, N-(3-(4,6-dimethylpyrimidin-5-yl)-4-(2-(pyrrolidin-1-yl)ethoxy)phenyl)-2-(1-methyl-1H-pyrazol-5-yl)acetamide] | 83.1 nM | 
22 | Cc1ncnc(C)c1-c1cc(NC(=O)CC2CCOC2)ccc1OCCN1CCCC1 (stereo not drawn) [Compound 228, N-(3-(4,6-dimethylpyrimidin-5-yl)-4-(2-(pyrrolidin-1-yl)ethoxy)phenyl)-2-(tetrahydrofuran-3-yl)acetamide] | 13 nM | 
23 | Cc1ncnc(C)c1-c1cc(NC(=O)CC2CCCO2)ccc1OCCN1CCCC1 (stereo not drawn) [Compound 229, N-(3-(4,6-dimethylpyrimidin-5-yl)-4-(2-(pyrrolidin-1-yl)ethoxy)phenyl)-2-(tetrahydrofuran-2-yl)acetamide] | 113 nM | 
24 | Cc1ncnc(C)c1-c1cc(NC(=O)C2CCCO2)ccc1OCCN1CCCC1 (stereo not drawn) [Compound 230, N-(3-(4,6-dimethylpyrimidin-5-yl)-4-(2-(pyrrolidin-1-yl)ethoxy)phenyl)tetrahydrofuran-2-carboxamide] | 252 nM | 
25 | Cc1ncnc(C)c1-c1cc(NC(=O)C2CCOC2)ccc1OCCN1CCCC1 (stereo not drawn) [Compound 231, N-(3-(4,6-dimethylpyrimidin-5-yl)-4-(2-(pyrrolidin-1-yl)ethoxy)phenyl)tetrahydrofuran-3-carboxamide] | 45.7 nM | 
26 | CCOCC(=O)Nc1ccc(OCCN2CCCC2)c(-c2c(C)ncnc2C)c1 [Compound 234, N-(3-(4,6-dimethylpyrimidin-5-yl)-4-(2-(pyrrolidin-1-yl)ethoxy)phenyl)-2-ethoxyacetamide] | 121 nM | 
27 | COCCC(=O)Nc1ccc(OCCN2CCCC2)c(-c2c(C)ncnc2C)c1 [Compound 235, N-(3-(4,6-dimethylpyrimidin-5-yl)-4-(2-(pyrrolidin-1-yl)ethoxy)phenyl)-3-methoxypropanamide] |  | Ki: 211 nM
